{
  "source": "the supplement of paper PMC10307832",
  "assay_in_all_cases": "relative viability (nuclei count vs DMSO), 5 days (fraction); higher = more cells survive",
  "key": {"[1]": {"compound": "O=C(Nc1c[nH]nc1-c1nc2ccc(CN3CCOCC3)cc2[nH]1)NC1CC1 [AT9283] + O=C(CCCCCCC(=O)Nc1ccccc1)NO [Vorinostat] (partner 1 µM)", "how_it_was_run": "(§1)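 Nuclei were stained with Hoechst during a one-step fixation (final 0.05% Triton X-100, 1% formaldehyde, 1 ug/ml Hoechst) carried out 5 days after dosing, then counted on 4× images. The cells, lung cancer lines in 1536-well plates, had been dosed by pin tool the day after seeding with one drug alone or a fixed anchor-drug dose plus five library-drug doses (not always all listed) in √10 steps. Relative viability is the nuclei count in treated wells divided by that in vehicle wells, and each value is the median of duplicate plates.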"}, "[2]": {"compound": "O=C(Nc1c[nH]nc1-c1nc2ccc(CN3CCOCC3)cc2[nH]1)NC1CC1 [AT9283] + CC1(C)CCC(c2ccc(Cl)cc2)=C(CN2CCN(c3ccc(C(=O)NS(=O)(=O)c4ccc(N[C@H](CCN5CCOCC5)CSc5ccccc5)c(S(=O)(=O)C(F)(F)F)c4)cc3)CC2)C1 [Navitoclax] (partner 0.5 µM)", "how_it_was_run": "as §1"}, "[3]": {"compound": "O=C(Nc1c[nH]nc1-c1nc2ccc(CN3CCOCC3)cc2[nH]1)NC1CC1 [AT9283] + CS(=O)(=O)CCNCc1ccc(-c2ccc3ncnc(Nc4ccc(OCc5cccc(F)c5)c(Cl)c4)c3c2)o1 [Lapatinib] (partner 2 µM)", "how_it_was_run": "as §1"}},
  "data": [
    {"cell line": "PC-3 [JPC-3]", "values": [
      {"measurement": "relative viability", "setting": "[1]; first compound 0.003 µM", "result": 0.562},
      {"measurement": "relative viability", "setting": "[1]; first compound 0.03 µM", "result": 0.694},
      {"measurement": "relative viability", "setting": "[1]; first compound 0.09487 µM", "result": 0.526},
      {"measurement": "relative viability", "setting": "[1]; first compound 0.3 µM", "result": 0.46},
      {"measurement": "relative viability", "setting": "[2]; first compound 0.003 µM", "result": 0.821},
      {"measurement": "relative viability", "setting": "[2]; first compound 0.03 µM", "result": 0.723},
      {"measurement": "relative viability", "setting": "[2]; first compound 0.09487 µM", "result": 0.363},
      {"measurement": "relative viability", "setting": "[2]; first compound 0.3 µM", "result": 0.331},
      {"measurement": "relative viability", "setting": "[3]; first compound 0.003 µM", "result": 0.444},
      {"measurement": "relative viability", "setting": "[3]; first compound 0.03 µM", "result": 0.436},
      {"measurement": "relative viability", "setting": "[3]; first compound 0.09487 µM", "result": 0.422},
      {"measurement": "relative viability", "setting": "[3]; first compound 0.3 µM", "result": 0.304}
    ]},
    {"cell line": "PC-14", "values": [
      {"measurement": "relative viability", "setting": "[1]; first compound 0.003 µM", "result": 0.79},
      {"measurement": "relative viability", "setting": "[1]; first compound 0.03 µM", "result": 0.17},
      {"measurement": "relative viability", "setting": "[1]; first compound 0.09487 µM", "result": 0.107},
      {"measurement": "relative viability", "setting": "[1]; first compound 0.3 µM", "result": 0.114},
      {"measurement": "relative viability", "setting": "[2]; first compound 0.003 µM", "result": 1.12},
      {"measurement": "relative viability", "setting": "[2]; first compound 0.03 µM", "result": 1.01},
      {"measurement": "relative viability", "setting": "[2]; first compound 0.09487 µM", "result": 0.37},
      {"measurement": "relative viability", "setting": "[2]; first compound 0.3 µM", "result": 0.078},
      {"measurement": "relative viability", "setting": "[3]; first compound 0.003 µM", "result": 0.328},
      {"measurement": "relative viability", "setting": "[3]; first compound 0.03 µM", "result": 0.393},
      {"measurement": "relative viability", "setting": "[3]; first compound 0.09487 µM", "result": 0.203},
      {"measurement": "relative viability", "setting": "[3]; first compound 0.3 µM", "result": 0.102}
    ]},
    {"cell line": "RERF-LC-KJ", "values": [
      {"measurement": "relative viability", "setting": "[1]; first compound 0.003 µM", "result": 0.636},
      {"measurement": "relative viability", "setting": "[1]; first compound 0.03 µM", "result": 0.473},
      {"measurement": "relative viability", "setting": "[1]; first compound 0.09487 µM", "result": 0.346},
      {"measurement": "relative viability", "setting": "[1]; first compound 0.3 µM", "result": 0.264},
      {"measurement": "relative viability", "setting": "[2]; first compound 0.003 µM", "result": 0.834},
      {"measurement": "relative viability", "setting": "[2]; first compound 0.03 µM", "result": 0.554},
      {"measurement": "relative viability", "setting": "[2]; first compound 0.09487 µM", "result": 0.223},
      {"measurement": "relative viability", "setting": "[2]; first compound 0.3 µM", "result": 0.217},
      {"measurement": "relative viability", "setting": "[3]; first compound 0.003 µM", "result": 0.809},
      {"measurement": "relative viability", "setting": "[3]; first compound 0.03 µM", "result": 0.516},
      {"measurement": "relative viability", "setting": "[3]; first compound 0.09487 µM", "result": 0.256},
      {"measurement": "relative viability", "setting": "[3]; first compound 0.3 µM", "result": 0.191}
    ]},
    {"cell line": "SK-LU-1", "values": [
      {"measurement": "relative viability", "setting": "[1]; first compound 0.003 µM", "result": 0.904},
      {"measurement": "relative viability", "setting": "[1]; first compound 0.03 µM", "result": 0.418},
      {"measurement": "relative viability", "setting": "[1]; first compound 0.09487 µM", "result": 0.329},
      {"measurement": "relative viability", "setting": "[1]; first compound 0.3 µM", "result": 0.314},
      {"measurement": "relative viability", "setting": "[2]; first compound 0.003 µM", "result": 1.13},
      {"measurement": "relative viability", "setting": "[2]; first compound 0.03 µM", "result": 0.415},
      {"measurement": "relative viability", "setting": "[2]; first compound 0.09487 µM", "result": 0.178},
      {"measurement": "relative viability", "setting": "[2]; first compound 0.3 µM", "result": 0.18},
      {"measurement": "relative viability", "setting": "[3]; first compound 0.003 µM", "result": 0.933},
      {"measurement": "relative viability", "setting": "[3]; first compound 0.03 µM", "result": 0.371},
      {"measurement": "relative viability", "setting": "[3]; first compound 0.09487 µM", "result": 0.274},
      {"measurement": "relative viability", "setting": "[3]; first compound 0.3 µM", "result": 0.272}
    ]},
    {"cell line": "SK-MES-1", "values": [
      {"measurement": "relative viability", "setting": "[1]; first compound 0.003 µM", "result": 1.19},
      {"measurement": "relative viability", "setting": "[1]; first compound 0.03 µM", "result": 1.03},
      {"measurement": "relative viability", "setting": "[1]; first compound 0.09487 µM", "result": 0.304},
      {"measurement": "relative viability", "setting": "[1]; first compound 0.3 µM", "result": 0.154},
      {"measurement": "relative viability", "setting": "[2]; first compound 0.003 µM", "result": 1.24},
      {"measurement": "relative viability", "setting": "[2]; first compound 0.03 µM", "result": 1.11},
      {"measurement": "relative viability", "setting": "[2]; first compound 0.09487 µM", "result": 0.336},
      {"measurement": "relative viability", "setting": "[2]; first compound 0.3 µM", "result": 0.147},
      {"measurement": "relative viability", "setting": "[3]; first compound 0.003 µM", "result": 0.427},
      {"measurement": "relative viability", "setting": "[3]; first compound 0.03 µM", "result": 0.547},
      {"measurement": "relative viability", "setting": "[3]; first compound 0.09487 µM", "result": 0.349},
      {"measurement": "relative viability", "setting": "[3]; first compound 0.3 µM", "result": 0.263}
    ]},
    {"cell line": "SW 1573", "values": [
      {"measurement": "relative viability", "setting": "[1]; first compound 0.003 µM", "result": 0.835},
      {"measurement": "relative viability", "setting": "[1]; first compound 0.03 µM", "result": 0.211},
      {"measurement": "relative viability", "setting": "[1]; first compound 0.09487 µM", "result": 0.165},
      {"measurement": "relative viability", "setting": "[1]; first compound 0.3 µM", "result": 0.133},
      {"measurement": "relative viability", "setting": "[2]; first compound 0.003 µM", "result": 0.868},
      {"measurement": "relative viability", "setting": "[2]; first compound 0.03 µM", "result": 0.508},
      {"measurement": "relative viability", "setting": "[2]; first compound 0.09487 µM", "result": 0.117},
      {"measurement": "relative viability", "setting": "[2]; first compound 0.3 µM", "result": 0.117},
      {"measurement": "relative viability", "setting": "[3]; first compound 0.003 µM", "result": 1.15},
      {"measurement": "relative viability", "setting": "[3]; first compound 0.03 µM", "result": 0.494},
      {"measurement": "relative viability", "setting": "[3]; first compound 0.09487 µM", "result": 0.188},
      {"measurement": "relative viability", "setting": "[3]; first compound 0.3 µM", "result": 0.244}
    ]},
    {"cell line": "UMC-11", "values": [
      {"measurement": "relative viability", "setting": "[1]; first compound 0.003 µM", "result": 0.359},
      {"measurement": "relative viability", "setting": "[1]; first compound 0.03 µM", "result": 0.109},
      {"measurement": "relative viability", "setting": "[1]; first compound 0.09487 µM", "result": 0.117},
      {"measurement": "relative viability", "setting": "[1]; first compound 0.3 µM", "result": 0.124},
      {"measurement": "relative viability", "setting": "[2]; first compound 0.003 µM", "result": 0.309},
      {"measurement": "relative viability", "setting": "[2]; first compound 0.03 µM", "result": 0.113},
      {"measurement": "relative viability", "setting": "[2]; first compound 0.09487 µM", "result": 0.118},
      {"measurement": "relative viability", "setting": "[2]; first compound 0.3 µM", "result": 0.128},
      {"measurement": "relative viability", "setting": "[3]; first compound 0.003 µM", "result": 0.978},
      {"measurement": "relative viability", "setting": "[3]; first compound 0.03 µM", "result": 0.142},
      {"measurement": "relative viability", "setting": "[3]; first compound 0.09487 µM", "result": 0.128},
      {"measurement": "relative viability", "setting": "[3]; first compound 0.3 µM", "result": 0.202}
    ]}
  ]
}
